Measured values as given in the supplement of paper PMC11451515.

Test system: SEM cells
Experiment: cell viability relative to DMSO control; higher = less cytotoxic
Details: 48 h
In short: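 Viability was expressed as a per-plate percentage of DMSO wells, with cell-free wells as background. Leukemia cells (NOMO1 or SEM at 500 cells/well, P12-Ichikawa at 1000 cells/well) were adapted for at least four passages in each medium and seeded in 1536-well plates (5 μl). Library compounds in DMSO were pin-dosed over an 11-point threefold series from 47 μM to 0.79 nM, and CellTiter-Glo One luminescence was read after 48 h at 37°C.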

[1] = HPLM + 10% dialyzed FBS, 0.000781 µM
[2] = HPLM + 10% dialyzed FBS, 0.00234 µM
[3] = HPLM + 10% dialyzed FBS, 0.00702 µM
[4] = HPLM + 10% dialyzed FBS, 0.0211 µM
[5] = HPLM + 10% dialyzed FBS, 0.0632 µM
[6] = HPLM + 10% dialyzed FBS, 0.19 µM
[7] = HPLM + 10% dialyzed FBS, 0.569 µM
[8] = HPLM + 10% dialyzed FBS, 1.71 µM
[9] = HPLM + 10% dialyzed FBS, 5.12 µM
[10] = HPLM + 10% dialyzed FBS, 15.4 µM
[11] = HPLM + 10% dialyzed FBS, 46.1 µM
[12] = RPMI 5 mM glucose + 10% FBS, 0.000781 µM
[13] = RPMI 5 mM glucose + 10% FBS, 0.00234 µM
[14] = RPMI 5 mM glucose + 10% FBS, 0.00702 µM
[15] = RPMI 5 mM glucose + 10% FBS, 0.0211 µM
[16] = RPMI 5 mM glucose + 10% FBS, 0.0632 µM
[17] = RPMI 5 mM glucose + 10% FBS, 0.19 µM
[18] = RPMI 5 mM glucose + 10% FBS, 0.569 µM
[19] = RPMI 5 mM glucose + 10% FBS, 1.71 µM
[20] = RPMI 5 mM glucose + 10% FBS, 5.12 µM
[21] = RPMI 5 mM glucose + 10% FBS, 15.4 µM
[22] = RPMI 5 mM glucose + 10% FBS, 46.1 µM
[23] = RPMI 5 mM glucose + 10% dialyzed FBS, 0.000781 µM
[24] = RPMI 5 mM glucose + 10% dialyzed FBS, 0.00234 µM
[25] = RPMI 5 mM glucose + 10% dialyzed FBS, 0.00702 µM
[26] = RPMI 5 mM glucose + 10% dialyzed FBS, 0.0211 µM
[27] = RPMI 5 mM glucose + 10% dialyzed FBS, 0.0632 µM
[28] = RPMI 5 mM glucose + 10% dialyzed FBS, 0.19 µM
[29] = RPMI 5 mM glucose + 10% dialyzed FBS, 0.569 µM
[30] = RPMI 5 mM glucose + 10% dialyzed FBS, 1.71 µM
[31] = RPMI 5 mM glucose + 10% dialyzed FBS, 5.12 µM
[32] = RPMI 5 mM glucose + 10% dialyzed FBS, 15.4 µM
[33] = RPMI 5 mM glucose + 10% dialyzed FBS, 46.1 µM

SMILES	cell viability [1] [%]	cell viability [2] [%]	cell viability [3] [%]	cell viability [4] [%]	cell viability [5] [%]	cell viability [6] [%]	cell viability [7] [%]	cell viability [8] [%]	cell viability [9] [%]	cell viability [10] [%]	cell viability [11] [%]	cell viability [12] [%]	cell viability [13] [%]	cell viability [14] [%]	cell viability [15] [%]	cell viability [16] [%]	cell viability [17] [%]	cell viability [18] [%]	cell viability [19] [%]	cell viability [20] [%]	cell viability [21] [%]	cell viability [22] [%]	cell viability [23] [%]	cell viability [24] [%]	cell viability [25] [%]	cell viability [26] [%]	cell viability [27] [%]	cell viability [28] [%]	cell viability [29] [%]	cell viability [30] [%]	cell viability [31] [%]	cell viability [32] [%]	cell viability [33] [%]
c1cc(-c2cnn3cc(-c4ccc(OCCN5CCCCC5)cc4)cnc23)ccn1	69.3	58.4	94.8	34.4	32.7	31.1	27.9	96.2	88.5	8.18	30.9	103	76.7	121	63.7	51.6	43.4	34.8	103	105	40.4	23.3	91.5	60.9	99.8	45.4	31.8	24	25.9	90	78.4	42.2	23.7
CCCCCCNC(=O)N1\C=C(F)/C(=O)NC1=O	126	104	113	118	121	118	124	110	121	108	83.1	115	118	128	117	134	117	112	129	118	97.9	73.6	126	108	116	129	120	107	99.8	101	106	80.5	46.4
C[S+](=O)([O-])Oc1ccc2c(NC(N)=O)c(C(=O)c3ccc(Cl)cc3Cl)oc2c1	98.3	103	107	109	109	104	110	117	129	120	120	93.7	95.9	106	109	117	105	106	114	103	122	112	82.9	91.6	102	94	97	103	105	92.7	98.2	92.5	105
CN(C)c1nc(Cc2ccc(NC(=O)c3ccc(C(F)(F)F)cc3)cc2)nc(N(C)C)c1CC(=O)O	104	107	106	100	116	100	123	112	125	116	83.4	113	99.4	101	93.7	111	82.8	118	93.4	110	100	74.7	99.1	118	102	108	121	117	113	115	109	105	90
Cc1nc(-c2ccc(OCC(C)C)c(C#N)c2)sc1C(=O)O	110	110	101	120	115	104	122	108	106	110	113	125	112	116	104	105	104	121	105	105	122	124	107	132	121	131	127	111	106	111	126	132	138
CCOC(=O)c1c(C)n(C)c2ccc(O)cc12	99.8	95.8	97.6	96	95.6	105	97	103	107	113	104	115	121	107	110	101	119	108	120	114	124	111	115	117	106	118	113	95.5	106	112	113	117	116
CN1C(=O)/C(=C(NC2=CC=C(I)C=C2F)\C3=C1\N=C/N(C[C@@H](O)CO)C3=O)F	77.3	76.4	92.5	90.9	89.6	79.6	70.6	59.6	65.6	18.6	51.3	79.2	98.6	107	91.8	74.6	73.2	53.9	60.2	68.5	12.8	30.6	77.5	71.3	90.8	93.2	69.6	64.2	54.8	54.8	53	14.2	28
